Test results taken from patent US9181234B2, “Antibacterial compounds” (priority 2010, dated 2015).
In brackets after ≈: the same amount, converted by molar mass.

Assays:
[1] = system: Enterococcus faecalis (Isolate ID ATCC 29212); test: Antibacterial activity, MIC, E. faecalis; type: cell-based; conditions: Enterococcus faecalis, ATCC29212; Gram positive strain; broth microdilution or agar dilution
Procedure: Bacterial Assay: Determination of Antibacterial Activity
Compounds of the invention were tested for antimicrobial activity by susceptibility testing in liquid or on solid media. MICs for compounds against each strain were determined by the broth microdilution or agar dilution method according to the guidelines of the Clinical Laboratories and Standards Institute, formerly the National Committee for Clinical Laboratory Standards (Clinical Laboratories and Standards Institute. Methods for Dilution Antimicrobial Susceptibility Tests for Bacteria That Grow Aerobically; Approved Standard—Seventh Edition. Document M7-A7. CLSI, Wayne, Pa., 2006; Clinical Laboratories and Standards Institute. The gram positive bacterial strains tested include S. aureus (Staphylococcus aureus (Isolate ID ATCC 29213)), E. faecalis (Enterococcus faecalis (Isolate ID ATCC 29212)) and S. pyogenes (Streptococcus pyogenes (Isolate ID ATCC 51339)). The gram negative bacterial strains tested include H. influenzae (Haemophilus influenzae (Isolate ID ATCC 49247))

[2] = system: Streptococcus pyogenes (Isolate ID ATCC 51339); test: Antibacterial activity, MIC, S. pyogenes; type: cell-based; conditions: broth microdilution or agar dilution; for MIC: Streptococcus pyogenes, ATCC51339, Gram positive strain
Summary of the method: (§1)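 Compounds are serially diluted in broth or agar as CLSI specifies for aerobically growing bacteria, and the MIC is then recorded for each strain.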

[3] = system: Haemophilus influenzae (Isolate ID ATCC 49247); test: Antibacterial activity, MIC, H. influenzae; type: cell-based; conditions: Gram negative strain, broth microdilution or agar dilution; for MIC: Haemophilus influenzae, ATCC49247
Summary of the method: as §1

physchem = conditions: for solubility at 24 h: kinetic from dmso stock
Summary of the method: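 DMSO doubling dilutions were diluted twenty-fold into 100 mM citrate (pH 4), PBS (pH 7.4) or carbonate-bicarbonate (pH 9). After 24 h equilibration at room temperature, absorbance was read at 620 nm. The reported value is the highest concentration without measurable precipitate.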

[4] = system: Staphylococcus aureus (Isolate ID ATCC 29213); test: Antibacterial activity, MIC, S. aureus; type: cell-based; conditions: broth microdilution or agar dilution; for MIC: Staphylococcus aureus, ATCC29213, Gram positive strain
Summary of the method: as §1

[5] = pH 7.4, aqueous buffer, Solubility (pH 7.4)
[6] = pH 7.4, aqueous buffer, Solubility Range
[7] = pH 7.4, aqueous buffer, Max Solubility
[8] = pH 7.4, aqueous buffer, Solubility Range (maximum solubility)

Row | SMILES | MIC [1] [µg/mL] | MIC [2] [µg/mL] | MIC [3] [µg/mL] | solubility at 24 h (physchem; [5]) [µg/mL] | solubility at 24 h (physchem; [6]) [µg/mL] | MIC [4] [µg/mL] | solubility at 24 h (physchem; [7]) [µg/mL] | solubility at 24 h (physchem; [8]) [µg/mL] | also measured
1 | CCNC(=O)Nc1nc2cc(-c3cnc(N4CCCCC4(C)C(=O)O)nc3)cc(-c3ccccn3)c2s1 (centres unmarked) [Compound 2] | 0.25 to 1 (≈ 0.483 to 1.93 µM) | 0.25 to 1 (≈ 0.483 to 1.93 µM) | 1 to 16 (≈ 1.93 to 30.9 µM) | 6.25 (≈ 12.1 µM) | < 12.5 | 0.25 to 1 (≈ 0.483 to 1.93 µM) | – | – | –
2 | CCNC(=O)Nc1nc2cc(-c3cnc(N4CCC(O)C(C)(C(=O)O)C4)nc3)cc(-c3ccccn3)c2s1 (centres unmarked) [Compound 3] | 0.25 to 1 (≈ 0.469 to 1.87 µM) | ≤ 0.25 | 1 to 16 (≈ 1.87 to 30 µM) | 400 (≈ 750 µM) | 400 to 800 (≈ 750 to 1500 µM) | 1 to 16 (≈ 1.87 to 30 µM) | – | – | –
3 | CCNC(=O)Nc1nc2cc(-c3cnc(N4CCC(C)(C(=O)O)CC4)c(C)c3)cc(-c3ccccn3)c2s1 [Compound 5] | ≤ 0.25 | ≤ 0.25 | > 16 | ≥ 800 | > 800 | ≤ 0.25 | – | – | –
4 | CCNC(=O)Nc1nc2cc(-c3cnc(N4CCC(C)(C(=O)O)CC4)nc3)cc(-c3cc(C)ccn3)c2s1 [Compound 6, 1-[5-[2-(ethylcarbamoylamino)-7-(4-methyl-2-pyridyl)-1,3-benzothiazol-5-yl]pyrimidin-2-yl]-4-methyl-piperidine-4-carboxylic acid] | ≤ 0.25 | ≤ 0.25 | 1 to 16 (≈ 1.88 to 30.1 µM) | 400 (≈ 752 µM) | 400 to 800 (≈ 752 to 1500 µM) | ≤ 0.25 | – | – | –
5 | CCNC(=O)Nc1nc2cc(-c3cnc(N4CCC(C)(C(=O)O)CC4)nc3)cc(-c3ccc(OC)c(OC)n3)c2s1 [Compound 7] | ≤ 0.25 | ≤ 0.25 | 0.25 to 1 (≈ 0.433 to 1.73 µM) | 400 (≈ 692 µM) | 400 to 800 (≈ 692 to 1380 µM) | ≤ 0.25 | – | – | –
6 | CCNC(=O)Nc1nc2cc(-c3cnc(N4CCC(C)(C(=O)O)CC4)nc3)cc(-c3nccc(OC)n3)c2s1 [Compound 8] | ≤ 0.25 | ≤ 0.25 | 1 to 16 (≈ 1.82 to 29.2 µM) | 100 (≈ 182 µM) | 12.5 to 400 (≈ 22.8 to 729 µM) | ≤ 0.25 | – | – | –
7 | CCNC(=O)Nc1nc2cc(-c3cnc(N4CCC(C)(C(=O)O)C(C)C4)nc3)cc(-c3ccccn3)c2s1 (centres unmarked) [Compound 9] | ≤ 0.25 | ≤ 0.25 | 1 to 16 (≈ 1.88 to 30.1 µM) | ≥ 800 | > 800 | ≤ 0.25 | – | – | –
8 | CCNC(=O)Nc1nc2cc(-c3cnc(N4CCC(C)(C(=O)O)CC4)nc3)cc(-c3cc(F)ccn3)c2s1 [Compound 10] | ≤ 0.25 | ≤ 0.25 | 1 to 16 (≈ 1.87 to 29.9 µM) | 100 (≈ 187 µM) | 12.5 to 400 (≈ 23.3 to 747 µM) | ≤ 0.25 | – | – | –
9 | CCNC(=O)Nc1nc2cc(-c3cnc(N4CCC(C)(C(=O)O)CC4)nc3)cc(-c3cnccn3)c2s1 [Compound 11] | ≤ 0.25 | ≤ 0.25 | 1 to 16 (≈ 1.93 to 30.9 µM) | ≥ 800 | > 800 | ≤ 0.25 | – | – | –
10 | CCNC(=O)Nc1nc2cc(-c3cnc(N4CCC(C)(C(=O)O)CC4)nc3)cc(-c3nccc(C)n3)c2s1 [Compound 12] | ≤ 0.25 | ≤ 0.25 | 1 to 16 (≈ 1.88 to 30 µM) | ≥ 800 | > 800 | ≤ 0.25 | – | – | –
11 | CCNC(=O)Nc1nc2cc(-c3cnc(N4CCC(C)(C(=O)O)CC4)nc3)cc(CC)c2s1 [Compound 37, 1-{5-[7-Ethyl-2-(3-ethyl-ureido)-benzothiazol-5-yl]-pyrimidin-2-yl}-4-methyl-piperidine-4-carboxylic acid] | ≤ 0.25 | 1 to 16 (≈ 2.13 to 34.1 µM) | > 16 | – | – | 0.25 to 1 (≈ 0.534 to 2.13 µM) | – | – | –
12 | CCNC(=O)Nc1nc2cc(-c3cnc(N4CCC(C)(C(=O)O)CC4)nc3)cc(C3CCCCC3)c2s1 [Compound 39, 1-{5-[7-Cyclohexyl-2-(3-ethyl-ureido)-benzothiazol-5-yl]-pyrimidin-2-yl}-4-methyl-piperidine-4-carboxylic acid] | ≤ 0.25 | > 16 | > 16 | – | – | 1 to 16 (≈ 1.91 to 30.6 µM) | – | – | –
13 | CCNC(=O)Nc1nc2cc(-c3cnc(N4CCC(CC)(C(=O)O)CC4)nc3)cc(-c3cc(=O)[nH]cn3)c2s1 [Compound 111] | 1 to 16 (≈ 1.82 to 29.2 µM) | 1 to 16 (≈ 1.82 to 29.2 µM) | > 16 | – | – | > 16 | – | – | –
14 | CCNC(=O)Nc1nc2cc(-c3cnc(N4CCC(CC)(C(=O)O)CC4)s3)cc(-c3ccccn3)c2s1 [Compound 221, 4-Ethyl-1-[5-[2-(ethylcarbamoylamino)-7-(2-pyridyl)-1,3-benzothiazol-5-yl]thiazol-2-yl]piperidine-4-carboxylic acid] | – | ≤ 0.25 | 1 to 16 (≈ 1.86 to 29.8 µM) | ≥ 800 | > 800 | ≤ 0.25 | ≥ 800 | > 800 | –
15 | CCNC(=O)Nc1nc2cc(-c3cnc(NC4CCC(C)(C(=O)O)CC4)nc3)cc(-c3ccccn3)c2s1 (centres unmarked) [Compound 222] | – | ≤ 0.25 | 0.25 to 1 (≈ 0.47 to 1.88 µM) | ≥ 800 | > 800 | ≤ 0.25 | ≥ 800 | > 800 | –
16 | CCNC(=O)Nc1nc2cc(-c3cnc(N4CCC(CC)(C(=O)O)CC4)nc3)cc(/C(CC)=N\OC)c2s1 [Compound 223, (E/Z)-4-ethyl-1-(5-(2-(3-ethylureido)-7-(1-(methoxyimino)propyl)benzo[d]thiazol-5-yl)pyrimidin-2-yl)piperidine-4-carboxylic acid] | – | – | – | – | – | – | – | – | Antibacterial Activity (MIC) S. pyogenes (ATCC 51339) ([2]; Gram positive strain): A (“A” activity ≦0.25 μg/mL); Antibacterial Activity (MIC) H. influenzae (ATCC 49247) [3]: C (“C” activity >1.0 μg/mL-16 μg/mL); Solubility (pH 7.4) (physchem; 24 h, pH 7.4): 100 μg/mL; solubility at 24 h (physchem; pH 9, aqueous buffer, Max Solubility): 400 µg/mL (≈ 741 µM); solubility at 24 h (physchem; pH 9, aqueous buffer, Solubility Range (maximum solubility)): 400 to 800 µg/mL (≈ 741 to 1480 µM); Antibacterial Activity (MIC) S. aureus (ATCC 29213) ([4]; Gram positive strain): A (“A” activity ≦0.25 μg/mL)
17 | CCNC(=O)Nc1nc2cc(-c3cnc(N4CCC(CC)(C(=O)O)CC4)nc3)cc(/C(CC)=N/OC)c2s1 [Compound 224, 4-ethyl-1-[5-[2-(ethylcarbamoylamino)-7-[(E)-C-ethyl-N-methoxy-carbonimidoyl]-1,3-benzothiazol-5-yl]pyrimidin-2-yl]piperidine-4-carboxylic acid] | – | ≤ 0.25 | 1 to 16 (≈ 1.85 to 29.6 µM) | ≥ 800 | > 800 | ≤ 0.25 | ≥ 800 | > 800 | –
18 | CCNC(=O)Nc1nc2cc(-c3cnc(N4CCC(CC)(C(=O)O)CC4)nc3)cc(/C=N\OC)c2s1 [Compound 225, 4-Ethyl-1-[5-[2-(ethylcarbamoylamino)-7-[(Z)-methoxyiminomethyl]-1,3-benzothiazol-5-yl]pyrimidin-2-yl]piperidine-4-carboxylic acid] | – | ≤ 0.25 | 0.25 to 1 (≈ 0.489 to 1.95 µM) | ≥ 800 | > 800 | ≤ 0.25 | ≥ 800 | > 800 | –
19 | CCNC(=O)Nc1nc2cc(-c3cnc(N4CCC(CC)(C(=O)O)CC4)nc3)cc(-c3ncc(C)cn3)c2s1 [Compound 226] | – | ≤ 0.25 | 0.25 to 1 (≈ 0.457 to 1.83 µM) | ≥ 800 | > 800 | ≤ 0.25 | ≥ 800 | > 800 | –
20 | CCNC(=O)Nc1nc2cc(-c3cnc(N4CCC(C)(C(=O)O)CC4)nc3)cc(-n3cccn3)n2n1 [Compound 227, 1-(5-{2-[(ethylcarbamoyl)amino]-5-(1H-pyrazol-1-yl)[1,2,4]triazolo[1,5-a]pyridin-7-yl}pyrimidin-2-yl)-4-methylpiperidine-4-carboxylic acid] | – | 1 to 16 (≈ 2.04 to 32.6 µM) | 1 to 16 (≈ 2.04 to 32.6 µM) | 400 (≈ 815 µM) | 400 to 800 (≈ 815 to 1630 µM) | 1 to 16 (≈ 2.04 to 32.6 µM) | 400 (≈ 815 µM) | 400 to 800 (≈ 815 to 1630 µM) | –
21 | CCNC(=O)Nc1nc2cc(-c3cnc(N4CCC(CC)(C(=O)O)CC4)nc3)cc(-c3ncccn3)c2s1 [Compound 228] | – | ≤ 0.25 | 1 to 16 (≈ 1.88 to 30 µM) | 200 (≈ 375 µM) | 12.5 to 400 (≈ 23.5 to 751 µM) | ≤ 0.25 | 200 (≈ 375 µM) | 12.5 to 400 (≈ 23.5 to 751 µM) | –
22 | CCNC(=O)Nc1nc2cc(-c3cnc(N4CCC(CC)(C(=O)O)CC4)nc3)cc(-c3ccccn3)c2[nH]1 [Compound 229, 4-Ethyl-1-(5-(2-(3-ethylureido)-7-(pyridin-2-yl)-1H-benzoimidazol-5-yl)pyrimidin-2-yl)piperidine-4-carboxylic acid] | – | ≤ 0.25 | 1 to 16 (≈ 1.94 to 31.1 µM) | – | – | ≤ 0.25 | – | – | solubility at 24 h (physchem; pH 7.4, aqueous buffer, Solubility (pH 7.4), pH 7.4 (PBS), 24 hours at room temperature, turbidimetric): 100 µg/mL (≈ 194 µM); solubility at 24 h (physchem; pH 7.4, aqueous buffer, Solubility Range, pH 7.4): 12.5 to 400 µg/mL (≈ 24.3 to 777 µM); solubility at 24 h (physchem; pH 9, aqueous buffer, Max Solubility, maximum of pH 4, 7.4 and 9, shown at pH 9): 200 µg/mL (≈ 389 µM); solubility at 24 h (physchem; pH 9, aqueous buffer, Solubility Range (maximum solubility), maximum of pH 4, 7.4 and 9, shown at pH 9): 12.5 to 400 µg/mL (≈ 24.3 to 777 µM)
